Legend:
[1] = test system: SARS-CoV-2-GHB-03021/2020; details: hamster, in vivo
SARS-CoV-2 [2] = details: monotherapy; cited from earlier work
human cathepsin L = human cathepsin L (Homo sapiens, UniProt P07711); assay: human cathepsin L biochemical assay; details: 3CLpro versus cathepsin L
SARS-CoV-2 [3] = details: cited from earlier work
3CLpro = details: cited from earlier work
SARS-CoV-2 [4] = details: cited from earlier work; remark: listed apart in the source
[5] = test system: human alpha-coronavirus 229E; assay: organism not typed; type: cell-based; details: Huh-7, 96 h, read-out: α-CoV 229E (Huh-7) EC50
[6] = Cytotoxicity in HeLa cells; type: cell-based; details: human

Chain of human cathepsin L (P07711 114-333): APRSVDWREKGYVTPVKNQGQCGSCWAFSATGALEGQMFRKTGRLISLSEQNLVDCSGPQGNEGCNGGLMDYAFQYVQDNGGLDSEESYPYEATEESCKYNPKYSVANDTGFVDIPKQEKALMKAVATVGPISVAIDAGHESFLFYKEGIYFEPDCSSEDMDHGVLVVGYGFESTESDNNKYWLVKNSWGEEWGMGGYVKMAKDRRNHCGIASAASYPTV

CC(C)C(=O)OC[C@H]1O[C@@H](n2ccc(NO)nc2=O)[C@H](O)[C@@H]1O [EIDD-2801]
reduction in viral RNA copies per mg of lung tissue [1]: 2.0 log10 | reduction of infectious virus titers in the lungs [1]: 4.1 log10 TCID50 per mg

CC(C)C[C@H](NC(=O)OCc1ccccc1)C(=O)N[C@@H](CC1CCNC1=O)C(O)S(=O)(=O)[O-].[Na+] (stereo partly shown) [GC-376]
antiviral effect in a mouse model of SARS-CoV-2 infection (SARS-CoV-2 [2]): failed to show a clear antiviral effect | selectivity against human cathepsin L in comparison with ALG-097111 (human cathepsin L): significantly less selective | antiviral activity in the K18-hACE2 SARS-CoV-2 infection mouse model (SARS-CoV-2 [3]): modest antiviral activity

CN1CCN(C(=O)N[C@@H](Cc2ccccc2)C(=O)N[C@H](/C=C/S(=O)(=O)c2ccccc2)CCc2ccccc2)CC1 [K117777]
inhibitory effect on the 3CLpro (3CLpro): lacks an inhibitory effect | antiviral effect when TMPRSS2 was expressed (SARS-CoV-2 [4]; A549-ACE2 expressing TMPRSS2): abolished | inhibition of SARS-CoV-2 in cells (SARS-CoV-2 [4]; VeroE6, A549-ACE2 and HeLa-ACE2): potent inhibition

CCC(CC)COC(=O)[C@H](C)N[P@](=O)(OC[C@H]1O[C@@](C#N)(c2ccc3c(N)ncnn23)[C@H](O)[C@@H]1O)Oc1ccccc1 [Remdesivir]
EC50 [5]: 14.5 ± 3.48 nM | CC50 [6]: > 5000 nM

— paper PMC7997389 (Biochemical and Biophysical Research Communications, 2021)
